Assay results taken from patent US20170360791A1, “PHARMACEUTICAL COMPOSITIONS FOR INCREASING THE BIOAVAILABILITY OF POORLY SOLUBLE DRUGS” (ASTEX PHARMACEUTICALS, INC., priority 2014, published 2017).
Converted amounts (≈) assume the structure as drawn. Where two headings read alike, the source gives them in different places.

Tests used:
[1] = MP470FB content in the supernatant of Soluplus/SIF mixtures at various time-points; format: physicochemical; parameters: MP470FB content in the supernatant: unit not given here; settings: 37° C.
[2] = format: physicochemical; settings: room temperature, >24 hours
Procedure: The suspensions were filtered through 0.2 or 0.45 microm filters prior to HPLC analysis. Some filtrates were diluted with MeOH prior to the HPLC analysis.

SMILES: S=C(NCc1ccc2c(c1)OCO2)N1CCN(c2ncnc3c2oc2ccccc23)CC1 [MP470 FB, amuvatinib]
- MP470FB content in the supernatant ([1]; 0.2% Soluplus/SIF, MP470FB 0.2 mg/mL, 30 min): 0.082
- MP470FB content in the supernatant ([1]; 0.2% Soluplus/SIF, MP470FB 0.2 mg/mL, 2 hr): 0.084
- MP470FB content in the supernatant ([1]; 0.2% Soluplus/SIF, MP470FB 0.2 mg/mL, 4 hr): 0.089
- MP470FB content in the supernatant ([1]; 0.2% Soluplus/SIF, MP470FB 0.2 mg/mL, 6 hr): 0.087
- MP470FB content in the supernatant ([1]; 0.2% Soluplus/SIF, MP470FB 0.2 mg/mL, 24 hr): 0.107
- MP470FB content in the supernatant ([1]; 0.2% Soluplus/SIF, MP470FB 0.6 mg/mL, 30 min): 0.126
- MP470FB content in the supernatant ([1]; 0.2% Soluplus/SIF, MP470FB 0.6 mg/mL, 2 hr): 0.136
- MP470FB content in the supernatant ([1]; 0.2% Soluplus/SIF, MP470FB 0.6 mg/mL, 4 hr): 0.152
- MP470FB content in the supernatant ([1]; 0.2% Soluplus/SIF, MP470FB 0.6 mg/mL, 6 hr): 0.154
- MP470FB content in the supernatant ([1]; 0.2% Soluplus/SIF, MP470FB 0.6 mg/mL, 24 hr): 0.178
- MP470FB content in the supernatant ([1]; 0.5% Soluplus/SIF, MP470FB 0.2 mg/mL, 30 min): 0.092
- MP470FB content in the supernatant ([1]; 0.5% Soluplus/SIF, MP470FB 0.2 mg/mL, 2 hr): 0.097
- MP470FB content in the supernatant ([1]; 0.5% Soluplus/SIF, MP470FB 0.2 mg/mL, 4 hr): 0.103
- MP470FB content in the supernatant ([1]; 0.5% Soluplus/SIF, MP470FB 0.2 mg/mL, 6 hr): 0.107
- MP470FB content in the supernatant ([1]; 0.5% Soluplus/SIF, MP470FB 0.2 mg/mL, 24 hr): 0.127
- MP470FB content in the supernatant ([1]; 0.5% Soluplus/SIF, MP470FB 0.6 mg/mL, 30 min): 0.155
- MP470FB content in the supernatant ([1]; 0.5% Soluplus/SIF, MP470FB 0.6 mg/mL, 2 hr): 0.190
- MP470FB content in the supernatant ([1]; 0.5% Soluplus/SIF, MP470FB 0.6 mg/mL, 4 hr): 0.228
- MP470FB content in the supernatant ([1]; 0.5% Soluplus/SIF, MP470FB 0.6 mg/mL, 6 hr): 0.235
- MP470FB content in the supernatant ([1]; 0.5% Soluplus/SIF, MP470FB 0.6 mg/mL, 24 hr): 0.315
- MP470FB content in the supernatant ([1]; 1.0% Soluplus/SIF, MP470FB 0.2 mg/mL, 30 min): 0.096
- MP470FB content in the supernatant ([1]; 1.0% Soluplus/SIF, MP470FB 0.2 mg/mL, 2 hr): 0.104
- MP470FB content in the supernatant ([1]; 1.0% Soluplus/SIF, MP470FB 0.2 mg/mL, 4 hr): 0.115
- MP470FB content in the supernatant ([1]; 1.0% Soluplus/SIF, MP470FB 0.2 mg/mL, 6 hr): 0.118
- MP470FB content in the supernatant ([1]; 1.0% Soluplus/SIF, MP470FB 0.2 mg/mL, 24 hr): 0.135
- MP470FB content in the supernatant ([1]; 1.0% Soluplus/SIF, MP470FB 0.6 mg/mL, 30 min): 0.179
- MP470FB content in the supernatant ([1]; 1.0% Soluplus/SIF, MP470FB 0.6 mg/mL, 2 hr): 0.223
- MP470FB content in the supernatant ([1]; 1.0% Soluplus/SIF, MP470FB 0.6 mg/mL, 4 hr): 0.277
- MP470FB content in the supernatant ([1]; 1.0% Soluplus/SIF, MP470FB 0.6 mg/mL, 6 hr): 0.318
- MP470FB content in the supernatant ([1]; 1.0% Soluplus/SIF, MP470FB 0.6 mg/mL, 24 hr): 0.428
- MP470FB content in the supernatant ([1]; 2.0% Soluplus/SIF, MP470FB 0.2 mg/mL, 30 min): 0.101
- MP470FB content in the supernatant ([1]; 2.0% Soluplus/SIF, MP470FB 0.2 mg/mL, 2 hr): 0.110
- MP470FB content in the supernatant ([1]; 2.0% Soluplus/SIF, MP470FB 0.2 mg/mL, 4 hr): 0.126
- MP470FB content in the supernatant ([1]; 2.0% Soluplus/SIF, MP470FB 0.2 mg/mL, 6 hr): 0.138
- MP470FB content in the supernatant ([1]; 2.0% Soluplus/SIF, MP470FB 0.2 mg/mL, 24 hr): 0.170
- MP470FB content in the supernatant ([1]; 2.0% Soluplus/SIF, MP470FB 0.6 mg/mL, 30 min): 0.206
- MP470FB content in the supernatant ([1]; 2.0% Soluplus/SIF, MP470FB 0.6 mg/mL, 2 hr): 0.290
- MP470FB content in the supernatant ([1]; 2.0% Soluplus/SIF, MP470FB 0.6 mg/mL, 4 hr): 0.368
- MP470FB content in the supernatant ([1]; 2.0% Soluplus/SIF, MP470FB 0.6 mg/mL, 6 hr): 0.409
- MP470FB content in the supernatant ([1]; 2.0% Soluplus/SIF, MP470FB 0.6 mg/mL, 24 hr): 0.469
- MP470FB content in the supernatant ([1]; 5.0% Soluplus/SIF, MP470FB 0.2 mg/mL, 30 min): 0.114
- MP470FB content in the supernatant ([1]; 5.0% Soluplus/SIF, MP470FB 0.2 mg/mL, 2 hr): 0.124
- MP470FB content in the supernatant ([1]; 5.0% Soluplus/SIF, MP470FB 0.2 mg/mL, 4 hr): 0.129
- MP470FB content in the supernatant ([1]; 5.0% Soluplus/SIF, MP470FB 0.2 mg/mL, 6 hr): 0.137
- MP470FB content in the supernatant ([1]; 5.0% Soluplus/SIF, MP470FB 0.2 mg/mL, 24 hr): 0.144
- MP470FB content in the supernatant ([1]; 5.0% Soluplus/SIF, MP470FB 0.6 mg/mL, 30 min): 0.244
- MP470FB content in the supernatant ([1]; 5.0% Soluplus/SIF, MP470FB 0.6 mg/mL, 2 hr): 0.342
- MP470FB content in the supernatant ([1]; 5.0% Soluplus/SIF, MP470FB 0.6 mg/mL, 4 hr): 0.374
- MP470FB content in the supernatant ([1]; 5.0% Soluplus/SIF, MP470FB 0.6 mg/mL, 6 hr): 0.411
- MP470FB content in the supernatant ([1]; 5.0% Soluplus/SIF, MP470FB 0.6 mg/mL, 24 hr): 0.467
- MP470FB content in the supernatant ([1]; Control (SIF), MP470FB 0.2 mg/mL, 30 min): 0.002
- MP470FB content in the supernatant ([1]; Control (SIF), MP470FB 0.2 mg/mL, 2 hr): 0
- MP470FB content in the supernatant ([1]; Control (SIF), MP470FB 0.2 mg/mL, 4 hr): 0
- MP470FB content in the supernatant ([1]; Control (SIF), MP470FB 0.2 mg/mL, 6 hr): 0
- MP470FB content in the supernatant ([1]; Control (SIF), MP470FB 0.2 mg/mL, 24 hr): 0
- MP470FB content in the supernatant ([1]; Control (SIF), MP470FB 0.6 mg/mL, 30 min): 0.002
- MP470FB content in the supernatant ([1]; Control (SIF), MP470FB 0.6 mg/mL, 2 hr): 0
- MP470FB content in the supernatant ([1]; Control (SIF), MP470FB 0.6 mg/mL, 4 hr): 0
- MP470FB content in the supernatant ([1]; Control (SIF), MP470FB 0.6 mg/mL, 6 hr): 0
- MP470FB content in the supernatant ([1]; Control (SIF), MP470FB 0.6 mg/mL, 24 hr): 0
- time MP470 is kept stable in solution by interaction with Soluplus ([1]; Soluplus/SIF): at least 24 hours
- solubility ([2]; TPGS, aqueous with cosolvent or surfactant or cyclodextrin, thermodynamic from solid, solvent TPGS, read-out: Solubility): 10 mg/mL (≈ 22.3 mM)
- solubility ([2]; Tween 80, aqueous with cosolvent or surfactant or cyclodextrin, thermodynamic from solid, solvent Tween 80, read-out: Solubility): 6.6 mg/mL (≈ 14.7 mM)
- solubility ([2]; acetic acid, organic solvent or mixture, thermodynamic from solid, solvent Acetic acid, read-out: Solubility): 2.9 mg/mL (≈ 6.48 mM)
- solubility ([2]; anisole, organic solvent or mixture, thermodynamic from solid, solvent Anisole, read-out: Solubility): 1.8 mg/mL (≈ 4.02 mM)
- solubility ([2]; ethanol, organic solvent or mixture, thermodynamic from solid, solvent Ethanol, read-out: Solubility): 0.3 mg/mL (≈ 0.67 mM)
- solubility ([2]; ethyl cinnamate, organic solvent or mixture, thermodynamic from solid, solvent Ethyl cinnamate, read-out: Solubility): 3.9 mg/mL (≈ 8.71 mM)
- solubility ([2]; linoleic acid, oil or lipid, thermodynamic from solid, solvent Linoleic acid, read-out: Solubility): 0.02 mg/mL (≈ 0.0447 mM)
- solubility ([2]; oleic acid, oil or lipid, thermodynamic from solid, solvent Oleic acid, read-out: Solubility): 0.1 mg/mL (≈ 0.223 mM)
- solubility ([2]; propylene carbonate, organic solvent or mixture, thermodynamic from solid, solvent Propylene carbonate, read-out: Solubility): 2.9 mg/mL (≈ 6.48 mM)
- solubility ([2]; solvent Acetone): 2.6 mg/mL (≈ 5.81 mM)
- solubility ([2]; solvent Benzyl alcohol): 63 mg/mL (≈ 141 mM)
- solubility ([2]; solvent DMA): >240 mg/mL
- solubility ([2]; solvent DMA, listed as MP470 free base): > 240 mg/mL
- solubility ([2]; solvent DMSO): ~130 mg/mL (≈ 290 mM)
- solubility ([2]; solvent Glycerin): 0.4 mg/mL (≈ 0.894 mM)
- solubility ([2]; solvent Labrasol): 11 mg/mL (≈ 24.6 mM)
- solubility ([2]; solvent Methanol): 0.5 mg/mL (≈ 1.12 mM)
- solubility ([2]; solvent NMP): 300 to 360 mg/mL
- solubility ([2]; solvent NMP, listed as MP470 free base): ~300 mg/mL (≈ 670 mM)
- solubility ([2]; solvent PEG400): 14 mg/mL (≈ 31.3 mM)
- solubility ([2]; solvent Phosal 50 PG): 0.5 mg/mL (≈ 1.12 mM)
- solubility ([2]; solvent Propylene glycol): 0.4 mg/mL (≈ 0.894 mM)
- solubility ([2]; solvent Tween 20): 8 mg/mL (≈ 17.9 mM)
- solubility ([2]; triacetin, organic solvent or mixture, thermodynamic from solid, solvent Triacetin, read-out: Solubility): 1 mg/mL (≈ 2.23 mM)
